Read-outs that look alike come from different tables or passages of the source.
Details: 14-membered ring, Cs2CO3, DMF, 85.0 °C
[1] = from O=C(NC[C@H](O)CCl)c1cnn2ccc(N3CC(F)(F)CC3c3cc(F)ccc3O)nc12, ether bond, 20.0 mM

| SMILES | ring closure, isolated yield (from N—((S)-3-chloro-2-hydroxypropyl)-5-4R)-2-(5-fluoro-2-oxo-1,2-dihydropyridin-3-yl)pyrrolidin-1-yl)pyrazolo[1,5-a]pyrimidine-3-carboxamide hydrochloride, other bond, […]) [%] | ring closure, isolated yield [1] [%] |
| --- | --- | --- |
| O=C1NC[C@H](O)Cn2cc(F)cc(c2=O)[C@H]2CCCN2c2ccn3ncc1c3n2 | 12 |  |
| O=C1NC[C@H](O)COc2ccc(F)cc2C2CC(F)(F)CN2c2ccn3ncc1c3n2 (single isomer, unassigned; diastereomer 1) |  | 20 |
| O=C1NC[C@H](O)COc2ccc(F)cc2C2CC(F)(F)CN2c2ccn3ncc1c3n2 (single isomer, unassigned; diastereomer 2) |  | 24 |
